# Results taken from patent publication US6911443B2 (Bayer Aktiengesellschaft, priority 2000, dated 2005).
# Biological target: T1, human Syk (GST-Syk) (Homo sapiens, UniProt P43405)
# T1 construct: A cDNA fragment encoding human Syk openreading frame was cloned; made in house; host or cells: Sf21 insect cells (baculovirus, transfer vector pAcG2T)
# Assay: Syk tyrosine kinase inhibitory assay
# Type: biochemical
# Conditions: Activity grade (IC50 class), in vitro; compounds as yielded by solid phase synthesis, purity about 40 to 90%
# Source text: [Syk Tyrosine Kinase Inhibitory Assay]
# (1) Preparation of Syk Protein
# A cDNA fragment encoding human Syk openreading frame was cloned from total RNA of human Burkitt's lymphoma B cell lines, Raji (American Type Culture Collection), with the use of RT-PCR method. The cDNA fragment was inserted into pAcG2T (Pharmingen, San Diego, Calif.) to construct a baculovirus transfer vector. Then the vector, together with the linearized baculovirus (BaculoGold™, Pharmingen), was used to transfect Sf21 cells (Invitrogen, San Diego, Calif.).
# Generated recombinant baculovirus was cloned and amplified in Sf21 cells. Sf21 cells were infected with this amplified high titer virus to produce a chimeric protein of Syk kinase fused by glutathione-S-transferase (GST).
# The resulting GST-Syk was purified with the use of glutathione column (Amersham Pharmacia Biotech AB, Uppsala, Sweden) according to the manufacturer's instruction.
# (2) Synthesize of a Peptide
# Next, a peptide fragment of 30 residues including two tyrosine residues, […], was synthesized by a peptide synthesizer. The N-terminal of the fragment was then biotinylated to obtain biotinylated activation loop peptide (AL).
# (3) The Measurement of Syk Tyrosine Kinase Activity
# All reagents were diluted with the Syk kinase assay buffer (50 mM Tris-HCl (pH 8.0), 10 mM MgCl2, 0.1 mM Na3VO4, 0.1% BSA, 1 mM DTT). First, a mixture (35 μl) including […] of GST-Syk and 0.5 μg of AL was put in each well in 96-well plates. Then 5 μl of a test compound in the presence of 2.5% dimethylsulfoxide (DMSO) was added to each well. To this mixture was added […] (10 μl) to initiate the kinase reaction. The final reaction mixture (50 μl) consists of 0.65 nM GST-Syk, 3 μM AL, 30 μM ATP, a test compound, 0.25% DMSO, and a Syk kinase assay buffer.
# The mixture was incubated for 1 hr at room temperature, and the reaction was terminated by the addition of 120 μl of termination buffer (50 mM Tris-HCl (pH 8.0), 10 mMEDTA, 500 mM NaCl, 0.1% BSA). The mixture was transferred to streptavidin-coated plates and incubated for 30 min at room temperature to combine biotin-AL to the plates. After washing the plates with Tris-buffered saline (TBS) (50 mM Tris-HCl (pH 8.0), 138 mM NaCl, 2.7 mM KCl) containing 0.05% Tween-20 for 3 times, 100 μl of antibody solution consisting of 50 mM Tris-HCl (pH 8.0), 138 mM NaCl, 2.7 mM KCl, 1% BSA, 60 ng/ml anti-phosphotyrosine monoclonal antibody, 4G10 (Upstate Biotechnology), which is labeled with europium by Amersham Pharmacia's kit in advance, was added and incubated at room temperature for 60 min. After washing, 100 μl of enhancement solution (Amersham pharmacia Biotech) was added and then time-resolved fluorescence was measured by multi-label counter ARVO (Wallac Oy, Finland) at 340 nm for excitation and 615 nm for emission with 400 msec of delay and 400 msec of window.
row,SMILES,IC50
1,CCSc1nc(-c2ccc(OC)c(OC(=O)N(C)C)c2)cc2nccn12 [Example 4-10],500 to 2000 nM

# Same assay, conditions: Table 11; read-out: Activity grade
row,SMILES,IC50
1,COc1cc(-c2cc3nccn3c(Nc3ccccc3)n2)ccc1OCCCN1CCSCC1 [Example 12-34],< 500 nM
2,COCCN(C)c1ccc(-c2cc3nccn3c(Nc3ccc(C(F)(F)F)cc3)n2)cc1OC [Example 12-43],< 500 nM
3,COCCN(C)c1ccc(-c2cc3nccn3c(Nc3ccccc3S(C)(=O)=O)n2)cc1OC [Example 12-44],< 500 nM
4,COc1ccc(-c2cc3nccn3c(Nc3ccc(Br)cc3)n2)cc1OC [Example 12-12],< 500 nM
5,COc1ccc(-c2cc3nccn3c(Nc3ccccn3)n2)cc1OC [Example 12-3],< 500 nM
6,COc1cc(-c2cc3nccn3c(Nc3ccc(Br)cc3)n2)ccc1N1CCOCC1 [Example 12-53],< 500 nM
7,COc1cc(-c2cc3nccn3c(Nc3ccccc3)n2)ccc1N1CCOCC1 [Example 12-54],< 500 nM
8,CCOc1ccc(-c2cc3nccn3c(Nc3ccccc3)n2)cc1OCC [Example 12-23],< 500 nM
9,COc1ccc(-c2cc3nccn3c(Nc3cccc(N)n3)n2)cc1OC [Example 12-29],< 500 nM

# Same assay, conditions: Table 13
row,SMILES,Activity grade
1,Clc1ccc(-c2cc3ncnn3c(Sc3ccccc3)n2)cn1 [Example 14-9],C-D

# Same assay, conditions: Table 13; read-out: Activity grade
row,SMILES,IC50
1,CCOC(=O)C(C)Sc1nc(-c2ccc(OC)c(OC)c2)cc2nccn12 (stereo not drawn) [Example 14-14],500 to 2000 nM
2,COc1ccc(-c2cc3nccn3c(SCCc3cnccn3)n2)cc1OC [Example 14-32],< 500 nM
3,c1ccc(Sc2nc(-c3ccccc3)cc3ncnn23)cc1 [Example 14-7],2000 to 10000 nM
4,CNC(=O)CSc1nc(-c2ccc(OC)c(OC)c2)cc2nccn12 [Example 14-33],< 500 nM
5,CCC(C)CSc1nc(-c2ccc(OC)c(OC)c2)cc2nccn12 (stereo not drawn) [Example 14-23],500 to 2000 nM
6,COc1ccc(-c2cc3nccn3c(SCc3ccc(F)cc3)n2)cc1OC [Example 14-30],500 to 2000 nM

# Same assay, conditions: Table 16; read-out: Activity grade
row,SMILES,IC50
1,CCSc1nc(-c2ccc(OC)c(NCCCN(C)C)c2)cc2nccn12 [Example 17-6],< 500 nM
2,CCSc1nc(-c2ccc(OC)c(NCCN(C)C)c2)cc2nccn12 [Example 17-8],500 to 2000 nM
3,CCSc1nc(-c2ccc(N(C)C)c(OC)c2)cc2nccn12 [Example 17-15],< 500 nM
4,CCSc1nc(-c2ccc(NCCCN(C)C)c(OC)c2)cc2nccn12 [Example 17-13],< 500 nM

# Same assay, conditions: Table 17; IC50 classes; read-out: Activity grade
row,SMILES,IC50
1,COc1cc(-c2cc3nccn3c(Nc3ncccc3C(N)=O)n2)ccc1N1CCOCC1 [Example 38],< 500 nM
2,COc1ccc(-c2cc3nccn3c(Cc3ccccc3)n2)cc1OC [Example 35],2000 to 10000 nM
3,Cc1c(N)cccc1Oc1nc(-c2ccc(OC3CCCC3)c(O)c2)cc2ncnn12 [compound 15],2000 to 10000 nM
4,COc1ccc(-c2cc3nccn3c(SCCN)n2)cc1OC [Example 25],< 500 nM
5,COc1ccc(-c2cc3nccn3c(N(C(C)=O)c3ccccc3)n2)cc1OC(C)=O [Example 10],2000 to 10000 nM
6,COc1ccc(-c2cc3nccn3c(Nc3ccc(CC(N)C(=O)OC(C)C)cc3)n2)cc1OC (stereo not drawn) [Example 29],< 500 nM

# Same assay, conditions: in vitro; compounds as yielded by solid phase synthesis, purity about 40 to 90%
row,SMILES,Activity grade (IC50 class)
1,COc1ccc(-c2cc3nccn3c(N3CCN(C4CCCCC4)CC3)n2)cc1OC [Example 9-48],C-D
2,CCSc1nc(-c2ccc(S(N)(=O)=O)c(OC)c2)cc2nccn12 [Example 2-7],C-D
3,CCSc1nc(-c2ccc(S(=O)(=O)N3CCOCC3)c(OC)c2)cc2nccn12 [Example 2-6],C-D
4,COc1ccc(-c2cc3nccn3c(N3CCN(C(c4ccc(F)cc4)c4ccc(F)cc4)CC3)n2)cc1OC [Example 9-45],C-D
5,COc1ccc(-c2cc3nccn3c(Sc3ccc(CC(=O)O)cc3)n2)cc1OC [Example 13-19],C-D
6,COc1ccc(-c2cc3nccn3c(N3CCN(c4ccc(C(F)(F)F)cn4)CC3)n2)cc1OC [Example 9-50],C-D
7,COc1ccc(-c2cc3nccn3c(N3CCN(c4ccc(Cl)c(Cl)c4)CC3)n2)cc1OC [Example 9-42],C-D

# Same assay, conditions: in vitro; compounds as yielded by solid phase synthesis, purity about 40 to 90%; read-out: Activity grade (IC50 class)
row,SMILES,IC50
1,COC(=O)[C@H](Cc1c[nH]c2ccccc12)Nc1nc(-c2ccc(OC)c(OC)c2)cc2nccn12 [Example 9-85],2000 to 10000 nM
2,COc1ccc(-c2cc3nccn3c(Sc3c(Cl)cccc3Cl)n2)cc1OC [Example 13-10],500 to 2000 nM
3,COc1ccc(-c2cc3nccn3c(N3CCN(Cc4ccc5c(c4)OCO5)CC3)n2)cc1OC [Example 9-32],2000 to 10000 nM
4,COc1ccc(-c2cc3nccn3c(Nc3cccc(C(N)=O)c3)n2)cc1OC [Example 11-11],< 500 nM
5,COc1ccc(-c2cc3nccn3c(Nc3cccc(Br)c3)n2)cc1OC [Example 11-52],< 500 nM
6,COc1ccc(-c2cc3nccn3c(Nc3ccc(CCC(=O)O)cc3)n2)cc1OC [Example 11-24],< 500 nM
7,COc1ccc(-c2cc3nccn3c(Nc3ccc([N+](=O)[O-])cc3)n2)cc1OC [Example 11-33],< 500 nM
8,CCSc1nc(-c2ccc3cc(OC)ccc3c2)cc2nccn12 [Example 1-6],2000 to 10000 nM
9,COc1ccc(-c2cc3nccn3c(Nc3ccc4[nH]c(=O)[nH]c4c3)n2)cc1OC [Example 11-89],< 500 nM
10,CCOc1ccc(-c2cc3nccn3c(SCC)n2)cc1OC [Example 3-1],< 500 nM
11,COc1ccc(-c2cc3nccn3c(N3CCCCC3)n2)cc1OC [Example 9-54],500 to 2000 nM
12,COc1ccc(-c2cc3nccn3c(Nc3cccc(OC(F)(F)F)c3)n2)cc1OC [Example 11-69],< 500 nM
13,COC(=O)CCCc1ccc(Nc2nc(-c3ccc(OC)c(OC)c3)cc3nccn23)cc1 [Example 9-25],500 to 2000 nM
14,COc1ccc(-c2cc3ncnn3c(Nc3ncccc3O)n2)cc1OC [Example 9-17],2000 to 10000 nM
15,COc1ccc(-c2cc3nccn3c(Sc3cccc(N)c3)n2)cc1OC [Example 13-3],< 500 nM
16,COc1cccc(Nc2nc(-c3ccc(OC)c(OC)c3)cc3nccn23)c1 [Example 11-58],< 500 nM

row,SMILES,IC50
1,COc1ccc(-c2cc3nccn3c(Sc3ccc(CCC(=O)O)cc3)n2)cc1OC(C)=O [Example 13-25],< 500 nM
2,CCSc1nc(-c2ccc(OCC3CCCCO3)c(OC)c2)cc2nccn12 (stereo not drawn) [Example 3-4],< 500 nM
3,CCSc1nc(-c2ccc(OC(C)C)c(OC)c2)cc2nccn12 [Example 3-5],< 500 nM
4,COc1ccc(Nc2nc(-c3ccc(OC)c(OC)c3)cc3nccn23)cc1NCCN1CCOCC1 [Example 11-111],2000 to 10000 nM
5,CCSc1nc(-c2ccc(OC)c(OCCN3CCOCC3)c2)cc2nccn12 [Example 5-12],500 to 2000 nM
6,COc1ccc(-c2cc3nccn3c(Nc3ccc(Br)cc3C(N)=O)n2)cc1OC [Example 11-97],< 500 nM
7,COc1ccc(-c2cc3nccn3c(Nc3cccc(S(N)(=O)=O)c3)n2)cc1OC [Example 11-114],< 500 nM
8,COC(=O)c1ccc(Nc2nc(-c3ccc(OC)c(OC)c3)cc3nccn23)cc1 [Example 11-26],< 500 nM
9,COc1ccc(-c2cc3nccn3c(N3CCN(c4ccccc4OC)CC3)n2)cc1OC [Example 9-34],2000 to 10000 nM
10,COc1ccc(-c2cc3nccn3c(Nc3ccc(CCCC(=O)O)cc3)n2)cc1OC [Example 11-21],< 500 nM
11,COc1ccc(-c2cc3nccn3c(N3CCCC3)n2)cc1OC [Example 9-55],500 to 2000 nM
12,COc1ccc(N(C)c2nc(-c3ccc(OC)c(OC)c3)cc3nccn23)cc1 [Example 11-49],500 to 2000 nM
13,COc1ccc(-c2cc3nccn3c(Nc3ccc(Cl)cc3)n2)cc1OC [Example 11-61],< 500 nM
14,COC(=O)[C@H](Cc1ccc(O)cc1)Nc1nc(-c2ccc(OC)c(OC)c2)cc2nccn12 [Example 9-2],2000 to 10000 nM
15,COc1ccc(-c2cc3nccn3c(N(C(C)=O)c3ccccc3)n2)cc1OC(C)=O [Example 10],< 500 nM
16,CCSc1nc(-c2ccsc2)cc2nccn12 [Example 8-5],500 to 2000 nM
